The results in this text go back to patent US20110195924A1, “Methods of Inhibiting the Interaction Between S100P and the Receptor for Advanced Glycation End-Products” (priority 2008, published 2011).

One test has as its target T1, S100P (Homo sapiens, UniProt P25815).
T1 construct: full-length human S100P cDNA (NM_005980) was cloned into the pTrcHis2 vector; made in house; host or cells: bacteria (pTrcHis2 vector, IPTG induction)
T1 sequence (P25815 1-95): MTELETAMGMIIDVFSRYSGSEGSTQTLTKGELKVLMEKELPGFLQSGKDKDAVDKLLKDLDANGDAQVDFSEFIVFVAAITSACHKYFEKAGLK
Briefly: S100P binding to cromolyn using affinity chromatography. The settings on record: cromolyn coupled to AF-TOYOPEARL; control column did not retain. Here is the method:
Cromolyn was coupled with the amino group of AF-amino TOYOPEARL to generate a cromolyn affinity column. A negative control column was prepared by blocking the amino group. Purified S100P was added to both columns, which were then washed extensively. Protein was eluted from the columns using EGTA and subjected to sodium dodecylsulfate polyacrylamide gel electrophoresis and staining with Commassie blue. Lane 1 of the gel is the molecular weight marker; lane 2 is the eluate from the control column; and lane 3 is the eluate from the cromolyn column (arrow, S100P). The gel shown is one of three independent experiments.
Cromolyn was coupled to AF-TOYOPEARL resin as described in Shishibori, et al., Three distinct anti-allergic drugs, amlexanox, cromolyn and tranilast, bind to S100A12 and S100A13 of the S100 protein family; Biochem. J. 1999 Mar. 15;338 (Pt 3):583-9. Briefly, 0.1 grams of cromolyn was dissolved in 1 mL of N,N-dimethylformamide and added to 7 mL (5 grams wet mass) AF-TOYOPEARL. Next, 0.5 grams of N-ethyl-N-(3-dimethylaminopropyl)carbodiimide hydrochloride, suspended in 10 mL of N,N-dimethylformamide, was added to the cromolyn+AF-TOYOPEARL slurry. The pH was adjusted to 5.0, and the slurry was incubated with gentle shaking for 48 hours at 25° C. As a negative control, a column was prepared by blocking the amino group of AF-TOYOPEARL with sodium acetate and acetic anhydride. […]

The subject of test [1] is BxPC-3 cells. Briefly: BxPC-3 cell proliferation (MTS). It is filed as cell-based. The following applies: 48 hours; for basal cell proliferation, mean: 0 μM mean 1.2. Here is the method: BxPC-3 cells were plated at 1.0×10^3 cells/well and treated with 0 μM, 1 μM, 10 μM, and 100 μM of cromolyn, and cell proliferation was analyzed after 48 hours. Means and 95% confidence intervals of three independent experiments performed in triplicate are shown. *, P=0.002; t, P<0.001 versus control. Growth of Panc-1 and BxPC3 pancreatic adenocarcinoma cells was analyzed using MTS reagent (Promega, Madison, Wis.) according to the manufacturer's directions. Purified S100P (100 nM final concentration) with or without cromolyn (100 μM final concentration) was added to Panc-1 cells. Only cromolyn (0-100 μM) was added to BxPC-3 cells, which express endogenous S100P. For both cell models, 1.0×10^3 cells/well were plated in 96-well culture dishes. Cells were treated with S100P, PDGF, or cromolyn, or a combination, followed immediately by treatment with either S100P or PDGF. MTS (20 μL per well) was added to cells at various times, and the mixture was incubated for 1 hour at 37° C. Samples were then read at 490 nm (as O.D. units) on a uQuant-Microplate Spectrophotometer (Bio-Tek Services Inc., Richmond, Va.). The assay was performed three times in triplicate.

Test [2] relates to BxPC-3 cells. Briefly: BxPC-3 matrigel invasion assay. It is filed as cell-based. The settings on record: 24 hours; for cells invaded, mean: 0 μM 19.3%. Here is the method: FIGS. 2A-2D show the effect of cromolyn on pancreatic cancer cell invasion. Panc-1 and BxPC-3 cells were plated in Bio-coat matrigel and control chambers and cultured in serum-free culture media. After 24 hours non-invaded cells in the upper chamber were removed, and cells that invaded onto the lower surface of the membrane were counted from five adjacent fields. […] Data are expressed as the percent invasion through the matrigel matrix and membrane relative to migration through the control membrane. Means and 95% confidence intervals from three independent experiments performed in triplicate are shown. Two-tailed two-sample (unpaired) Student's t-tests were used to determine P values. Panc-1 and BxPC-3 cells were seeded in BIOCOAT matrigel invasion chambers and in control chambers without matrigel (Becton-Dickinson, Bedford, Mass.) according to the manufacturer's protocol. Panc-1 cells were seeded with S100P (100 nM) with or without cromolyn (100 μM), and BxPC-3 cells were seeded with or without cromolyn (1-100 μM). Briefly, 2.0×10^5 cells in 300 μL top solution (serum-free media) were added to each chamber and allowed to invade matrigel for 24 hours at 37° C. in a 5% CO2 atmosphere. The non-invading cells on the upper surface of membrane were removed from the chambers with a cotton swab, and the invading cells on the lower surface of the membrane were fixed and stained using a Diff-Quick stain kit (Becton Dickinson, Bedford, Mass.). After two washes with water, the chambers were allowed to air dry. The numbers of invading cells in five adjacent microscope fields per membrane were counted at 20× magnification to obtain the average number of cells per field. Data are expressed as the percent invasion through the matrigel matrix and membrane relative to the migration through the control membrane. The assays were performed three times.

The target in another test is T2, S100P binding with RAGE (Homo sapiens, UniProt P25815).
T2 construct: full-length human S100P cDNA (NM_005980) was cloned into the pTrcHis2 vector; His; made in house; host or cells: bacteria (S100P)
T2 sequence (P25815 1-95): T1 sequence (P25815 1-95)
Briefly: ELISA of S100P binding to RAGE (sRAGE coated plate). Here is the method: After removing un-bound S100P by washing with detergent, the bound S100P and RAGE complex was quantified by adding HRP labeled antibody against S100P. *, P=0.04 C5 1 μM versus cromolyn 5 μM. Two-tailed two-sample (unpaired) Student's t-tests were used to determine P values.
The plate was washed and the amount of bound S100P was quantitated using anti-S100P antibody.
The binding of S100P to RAGE was determined using an ELISA assay. sRAGE was attached to the dish and recombinant S100P (50 ng) was added with or without the indicated concentrations of cromolyn analogs. The plate was washed and the amount of bound S100P was quantitated using anti-S100P antibody.
In general terms: ELISA stands for enzyme-linked immunosorbent assay.

Another test relates to SW480 colon cells. Briefly: SW480 colon cell proliferation. Type of test: cell-based. The following applies: cromolyn 100 μM, up to three days. Here is the method: SW480 colon cells were cultured for up to three days in the presence of cromolyn (100 μM), and cell proliferation was analyzed. *, P<0.05.

Each structure is given as a SMILES string. Entries after “also recorded” stand apart in the source; their conditions may differ.

In the case of `O=C(O)c1cc(=O)c2c(OCC(O)COc3cccc4oc(C(=O)O)cc(=O)c34)cccc2o1` [cromolyn, disodium 1,3-bis[(2′-carboxylatochromon-5′-yl)oxy]-2-hydroxypropane], the “retention of S100P on cromolyn affinity column” value at S100P is “retained S100P”. In addition, in the test on BxPC-3 cells [1] (cromolyn 10 μM), the “basal cell proliferation, difference versus 0 μM” value is 0.5 MTS units and the “basal cell proliferation, mean” value stood at 0.7 MTS units. Further, in the test on BxPC-3 cells [1] (cromolyn 100 μM), the “basal cell proliferation, difference versus 0 μM” value turned out to be 0.6 MTS units and the “basal cell proliferation, mean” value is given as 0.6 MTS units. Further, in the test on BxPC-3 cells [2] (cromolyn 10 μM), the “cells invaded, difference versus 0 μM” value turned out to be 10.0% and the “cells invaded, mean” value is listed as 9.3%. In addition, in the test on BxPC-3 cells [2] (cromolyn 100 μM), the “cells invaded, difference versus 0 μM” value was 11.7% and the “cells invaded, mean” value amounted to 7.7%. The “blocking of the interaction / binding of S100P with RAGE” value on S100P binding with RAGE is given as “blocked; also recorded: able to block”. Moreover, the “concentration achieving the same level of S100P inhibition” value at S100P binding with RAGE (FIG. 7) came out at 5 µM. Also, the “growth of SW480 cells” value with SW480 colon cells is reported as “reduced growth”.
